Measurements taken from US8906357B2, “Treatment of multiple sclerosis with masitinib” (AB Science, priority 2010, dated 2014).
“And” between values parts separate entries of the source, which are not always exact repeats. Identical values can stand only once. “Also recorded” adds a separate entry of the source. Like-named read-outs stand apart in the source and are kept apart here.

What was measured:
[1] = test system: mouse EAE model of MS; assay: Mouse EAE model of MS (MOG-induced disease in C57BL/6 mice), daily clinical score; type: in vivo; settings: days 26-35
Protocol: The ability and effect of masitinib in the inhibition of MC function in MS was explored using the EAE murine model. The myelin oligodendrocyte glycoprotein (MOG)-induced disease in C57BL/6 mice is considered to be a model for all progressive foinis of MS. C57BL/6 mice were immunized with 300 ng MOG35-55 peptide (an immunological target in the human disease) on days 0 (in complete Freund's adjuvant) and 7 (in incomplete Freund's adjuvant) and 250 ng pertussis was administered intravenously on days 0 and 2. Mice were scored daily by visual assessment of symptoms on a scale of 0-5 where 1 denotes a flaccid tail, 2 denotes hind limb weakness, 3 denotes hind limb paralysis, 4 denotes an inability to right from supine and 5 indicates death. Statistical analyzes of significance between mean clinical scores were performed using Bonferroni's Multiple Comparison Test-One way ANOVA or paired t tests. Statistical analyses were performed for the daily intervals between days 26-35. Five mice per experimental group were administrated the following treatment every day from the first day of immunization (day 0): • Vehicle (PBS) • Masitinib 25 mg/kg, 2 times per day, intraperitoneal injection • Masitinib 12.5 mg/kg, 2 times per day, intraperitoneal injection

[2] = test system: patients with PPMS or rfSPMS;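 further: oral masitinib started at 3 or 6 mg/kg/day split twice daily, with up to two 1.5 mg/kg/day increases permitted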
Protocol: Patients were randomized to receive orally administered masitinib at an initial dose of 3 or 6 mg/kg/day b.i.d, with two dose increases of 1.5 mg/kg/day permitted in the event of lack of activity and manageable toxicity. Masitinib and placebo were supplied as 100 or 200 mg tablets. The initial study had three arms but this was amended to close the 3 mg/kg/day bid arm after approximately 1 year.
MS evaluations were performed at screening, at week 0 (baseline), at month 1, 2, 3, 6, 9, 12, 18 and 24 or at the withdrawal visit. […] Masitinib tolerance was assessed by clinical and biological safety parameters.
Patients having SPMS with relapse in the 2 years before inclusion were excluded. No oral or parenteral concomitant corticosteroids were permitted for the duration of study, except in case of protocol-defined demyelinating event (methylprednisolone at 1 g/day for 3 days). No immunomodulating, immunosuppressing, chemotherapy and paracetamol concomitant administration were permitted for the duration of the study. Concomitant analgesic without anti-inflammatory action and oral narcotic analgesic were not allowed on the day of a study visit until all efficacy evaluations were completed. Concomitant physical therapy was allowed in patients already receiving such therapy at study entry. To manage rash, a mandatory concomitant treatment (cetirizine, 10 mg/day for 30 days) was combined with masitinib.
The latter is a multidimensional, MS-specific outcome measure, comprising of a timed 25-foot walk (T25FW) test measuring leg function and ambulation, a 9-hole peg test (9-HPT) measuring arm and hand function and a Paced Auditory Serial Addition Test 3 seconds (PASAT-3″) measuring cognitive function. The MSFC was calculated as described in the National Multiple Sclerosis Society MSFC administration and scoring manual by averaging the z-scores from each components of the MSFC.
Adverse events (AE) were described by duration, intensity, relation to masitinib and course of action. Intensities were graded either mild (signs and symptoms are present without functional repercussions), moderate (there are functional repercussions without putting the patient's health at risk), or severe (functional alterations or incapacity or definite risk for the patient health).

[3] = test system: patients with RRMS or rSPMS
Protocol: A multicenter, open-label, non-controlled, proof-of-concept clinical trial, designed to evaluate the efficacy and safety of oral masitinib administered at 3 or 6 mg/kg/day for 36 weeks in patients with RRMS or rSPMS.
Eligible patients should have had at least one active gadolinium lesion at any of the three MRI performed during an 8 week run-in period and an EDSS score within the range of 2.0 to 6.5 inclusive.

[4] = test system: wild-type and juxtamembrane-mutated c-Kit receptors; settings: results in cell cycle arrest and apoptosis of c-Kit dependent cell lines; cited from earlier work
[5] = test system: human cord blood MCs; settings: cited from earlier work
[6] = during the treatment period (W0 to W36)

Cc1ccc(NC(=O)c2ccc(CN3CCN(C)CC3)cc2)cc1Nc1nc(-c2cccnc2)cs1 [masitinib, 4-(4-methylpiperazin-1-ylmethyl)-N-[4-methyl-3-(4-pyridin-3ylthiazol-2-ylamino)phenyl]benzamide]
p value, mean clinical score, vehicle versus masitinib 12.5 mg/kg ([1]; 12.5 mg/kg 2 times per day intraperitoneal): p < 0.001 | p value, mean clinical score, vehicle versus masitinib 25 mg/kg ([1]; 25 mg/kg 2 times per day intraperitoneal): p < 0.001 | p value, mean clinical score, masitinib 25 mg/kg versus masitinib 12.5 mg/kg ([1]; 2 times per day intraperitoneal): p < 0.001 | mean clinical score relative to vehicle ([1]; both doses (25 and 12.5 mg/kg 2 times per day i.p.)): significant differences in mean clinical score; also recorded: significant reduction in disease | MSFC mean percentage change from baseline ([2]; All (masitinib n = 24), M3, LOCF): 78% | MSFC mean percentage change from baseline ([2]; All (masitinib n = 24), M3, LOCF, listed as Masitinib): 78 ± 284% | MSFC mean percentage change from baseline ([2]; All (masitinib n = 24), M6, LOCF): 156 ± 274% | MSFC mean percentage change from baseline ([2]; All (masitinib n = 24), M9, LOCF): 70 ± 267% | MSFC mean percentage change from baseline ([2]; All (masitinib n = 24), M12, LOCF): 103 ± 189% | MSFC mean percentage change from baseline ([2]; All (masitinib n = 24), M18, LOCF): +96% | MSFC mean percentage change from baseline ([2]; All (masitinib n = 24), M18, LOCF, listed as Masitinib): 96 ± 191% | MSFC mean percentage change from baseline ([2]; PPMS (masitinib n = 9), M3, LOCF): +108% | MSFC mean percentage change from baseline ([2]; PPMS (masitinib n = 9), M3, LOCF, listed as Masitinib): 108 ± 435% | MSFC mean percentage change from baseline ([2]; PPMS (masitinib n = 9), M6, LOCF): 202 ± 353% | MSFC mean percentage change from baseline ([2]; PPMS (masitinib n = 9), M9, LOCF): 56 ± 410% | MSFC mean percentage change from baseline ([2]; PPMS (masitinib n = 9), M12, LOCF): 134 ± 268% | MSFC mean percentage change from baseline ([2]; PPMS (masitinib n = 9), M18, LOCF): +134% | MSFC mean percentage change from baseline ([2]; PPMS (masitinib n = 9), M18, LOCF, listed as Masitinib): 134 ± 268% | EDSS score course ([2]; PPMS population): stable | Mean 9-HPT raw score change ([2]; at month 18): -1.6 s | Mean PASAT-3″ raw score change ([2]; at month 18): +6.0 | Mean T25FW raw score change ([2]; at month 18): +1.6 seconds | death ([2]; during the study): No death | MSQLI subscale SSS, mean percentage change from baseline ([2]; ex-post, n = 4): −6.9 ± 29.0% | MSQLI subscale VIS, mean percentage change from baseline ([2]; ex-post, n = 4): 0 ± 0% | MSQLI subscale SF-36, mean percentage change from baseline ([2]; ex-post, n = 5): 12.7 ± 24.3% | MSQLI subscale PDQ, mean percentage change from baseline ([2]; ex-post, n = 6): 1.1 ± 11.7% | MSQLI subscale BoCS, mean percentage change from baseline ([2]; ex-post, n = 7): −3.1 ± 8.8% | MSQLI subscale MSSS, mean percentage change from baseline ([2]; ex-post, n = 7): 6.2 ± 9.4% | MSQLI subscale PES, mean percentage change from baseline ([2]; ex-post, n = 7): −3.9 ± 12.2% | MSQLI subscale BLCS, mean percentage change from baseline ([2]; ex-post, n = 8): 21.5 ± 72.4% | MSQLI subscale MFIS, mean percentage change from baseline ([2]; ex-post, n = 8): −3.0 ± 14.9% | MSQLI subscale MHI, mean percentage change from baseline ([2]; ex-post, n = 9): 15.2 ± 25.99% | number of AEs reported by investigators ([2]; masitinib group n = 27): 100 | patients reporting AEs (adverse events) ([2]; masitinib group n = 27): 85% | patients reporting a serious, non-fatal AE ([2]; masitinib group n = 27): 33% | patients reporting a severe AE suspected to be related to therapy ([2]; masitinib group n = 27): 26% | patients with an AE leading to masitinib discontinuation ([2]; masitinib group n = 27): 26% | Asthenia, number of patients ([2]; masitinib n = 27): 11 | Asthenia, percent of patients ([2]; masitinib n = 27): 41% | Diarrhea, number of patients ([2]; masitinib n = 27): 3 | Diarrhea, percent of patients ([2]; masitinib n = 27): 11% | Nausea, number of patients ([2]; masitinib n = 27): 7 | Nausea, percent of patients ([2]; masitinib n = 27): 26% | Rash, number of patients ([2]; masitinib n = 27): 3 | Rash, percent of patients ([2]; masitinib n = 27): 11% | Urinary Tract Infection, number of patients ([2]; masitinib n = 27): 3 | Urinary Tract Infection, percent of patients ([2]; masitinib n = 27): 11% | Weight Decreased, number of patients ([2]; masitinib n = 27): 3 | Weight Decreased, percent of patients ([2]; masitinib n = 27): 11% | effect on MSQLI subscales (SF-36, MFIS, PES, PDQ, MHI, MSSS) ([2]; over the course of treatment): improved | mean change in EDSS ([2]; overall, over 18 months): < 0.5 | MSFC mean percentage change from baseline ([2]; rfSPMS (masitinib n = 15), M3, LOCF): +60% | MSFC mean percentage change from baseline ([2]; rfSPMS (masitinib n = 15), M3, LOCF, listed as Masitinib): 60 ± 152% | MSFC mean percentage change from baseline ([2]; rfSPMS (masitinib n = 15), M6, LOCF): 129 ± 223% | MSFC mean percentage change from baseline ([2]; rfSPMS (masitinib n = 15), M9, LOCF): 78 ± 146% | MSFC mean percentage change from baseline ([2]; rfSPMS (masitinib n = 15), M12, LOCF): 84 ± 130% | MSFC mean percentage change from baseline ([2]; rfSPMS (masitinib n = 15), M18, LOCF): +73% | MSFC mean percentage change from baseline ([2]; rfSPMS (masitinib n = 15), M18, LOCF, listed as Masitinib): 73 ± 131% | EDSS score course ([2]; rfSPMS population): remained stable | brain volume (MS-related imaging) ([2]; throughout the study, masitinib group): two patients experienced a brain volume increase | tolerability overall ([3]; 3 or 6 mg/kg/day oral): relatively well tolerated | EDSS ([3]; 36-week study): neither improvement nor progression | average number of T1 lesions ([3]; after 12 weeks of treatment (run-in period 5.35), 4 patients): 1.5 lesions | average volume of T1 lesions ([3]; after 12 weeks of treatment (run-in period 777 mm^3)): 54 mm^3 | average number of T1 lesions ([3]; after 20 weeks of treatment (run-in period 5.35), 4 patients): 0.25 lesions | average volume of T1 lesions ([3]; after 20 weeks of treatment (run-in period 777 mm^3)): 40 mm^3 | T1 gadolinium-enhancing lesion number ([3]; all patients, at consecutive time points during the study): reduced to none | patients in whom both number and volume of T1 lesions decreased ([3]; during masitinib treatment): 3/4 | average number of T1 lesions [3, 6]: 1.0 lesion | average volume of T1 lesions [3, 6]: 99 mm^3 | number and volume of T2 hyperintense lesions and T1 hyperintense lesions ([3]; during treatment): remained globally stable | death ([3]; human, in vivo): No death | total AEs reported during the treatment period ([3]; in two patients, all at doses of ≧6 mg/kg/day): 11 | patients experiencing relapses during treatment ([3]; one patient out of four, three relapses): 25% | EDSS score maintained ([3]; patient in the study extension phase, to W84): 2.5 | relapse-free duration of individual patients ([3]; three patients, respectively): 7 months and 11.5 months and 25 months | inhibitory effect on c-Kit receptors [4]: strong inhibitory effect | FcER1-mediated degranulation [5]: inhibition
